Measured values taken from patent US20260151406A1, “COMPOSITION FOR PREVENTING OR TREATING PERIODONTITIS COMPRISING CANNABIDIOL AND TAURINE” (MBP CO., LTD., priority 2022, published 2026).

What was measured:
Format in all cases: cell-based
Raw264.7 cells = test: Evaluation of cytotoxicity (intracellular toxicity); conditions: CBD alone (FIG. 1)
Description: For CBD and taurine, intracellular toxicity evaluation was performed on osteoclasts (Raw264.7 cells), which are inflammatory cells, and the results are shown in FIG. 1. […] The appropriate concentrations of CBD (10 uM) and Taurine (0.5 mM) were determined, and intracellular toxicity evaluation according to subsequent combined treatment was performed.

[1] = system: TRAP-positive cell formation in macrophages; test: Inhibition of TRAP-positive cell formation by RANKL during osteoclast differentiation; conditions: osteoclast differentiation (FIG. 3)
Description: (§1) To confirm the inhibitory effect of CBD and taurine on bone loss caused by periodontitis, the degree of TRAP formation and bone loss by RANKL (receptor activator of nuclear factor-KB ligand) was analyzed through pit formation area analysis.
As a result of analyzing the degree of inhibition of TRAP-positive cell formation by RANKL during osteoclast differentiation, it was confirmed that the inhibition efficacy of TRAP-positive cell formation was very low when CBD or taurine was used alone, but the inhibition efficacy of TRAP-positive cell formation was very high when CBD and taurine were used in combination (FIG. 3).

[2] = system: bone loss by RANKL in macrophages; test: Inhibition of bone loss by RANKL in macrophages (pit formation area analysis); conditions: pit formation area (FIG. 4)
Description: as §1
To further confirm the bone loss inhibition efficacy of CBD and taurine, the degree of inhibition of bone loss by RANKL in macrophages was analyzed.

| SMILES | concentration up to which there was no intracellular toxicity (Raw264.7 cells) | inhibition efficacy of TRAP-positive cell formation [1] | bone loss inhibition efficacy [2] |
| --- | --- | --- | --- |
| C=C(C)[C@@H]1CCC(C)=C[C@H]1c1c(O)cc(CCCCC)cc1O [CBD, Cannabidiol] | ≤ 12 µM | very low | almost none or very low |
| NCCS(=O)(=O)O [taurine] |  | very low | almost none or very low |
